Measurements published in patent US20060235013A1, “Tricyclic azole derivatives” (priority 2005, published 2006).
pIC50: −log10 of the molar value.

What was measured:
HCT 116 cells = assay: Viability assay in HCT 116 cells (CellTiter-Glo Luminescent Cell Viability Assay); type: cell-based; details: HCT 116 human colon carcinoma cells, 5 days (120 h) incubation, ATP luminescence
Protocol: Viability Assay in HCT 116 Cells
A viability assay was performed using the CellTiter-Glo® Luminescent Cell Viability Assay (see Promega Corporation's Technical Bulletin No. 288, pp. 1-11 [revised February 2004] which is hereby incorporated by reference in its entirety). This assay is a homogeneous method of determining the number of viable cells in culture based on quantitation of the ATP present, an indicator of metabolically active cells. The assay is designed for use with multiwell formats, making it ideal for automated high-throughput screening (HTS), cell proliferation and cytotoxicity assays. The homogenous assay procedure involves adding a single reagent (containing luciferase, luciferan substrate, and buffer) directly to cells cultured in serum-supplemented medium. Cell washing, removal of medium and multiple pipetting steps are not required. The system detects as few as 15 cells/well in a 384-well format in 10 minutes after adding reagent and mixing.
The homogeneous “add-mix-measure” format results in cell lysis and generation of a luminescent signal proportional to the amount of ATP present. The amount of ATP is directly proportional to the number of cells present in culture. The above-referenced assay generates a “glow-type” luminescent signal, produced by the luciferase reaction, which has a half-life generally greater than five hours, depending on cell type and medium used. The extended half-life eliminates the need to use reagent injectors and provides flexibility for continuous or batch mode processing of multiple plates. The unique homogeneous format avoids errors that may be introduced by other ATP measurement methods that require multiple steps.
HCT 116 cells (human colon carcinoma, ATCC-No. CCl-247) were cultivated in RPMI 1640 medium with GlutaMAX™ I (cell culture media that contains L-Alanyl-L-Glutamine [a stabilized a form/source of L-Glutamine] from Invitrogen, Cat-No. 61870-010), 2.5% Fetal Calf Serum (FCS, Sigma Cat-No. F4135 (FBS)); 100 Units/ml penicillin/100 μg/ml streptomycin (=Pen/Strep from Invitrogen Cat. No. 15140). For the assay the cells were seeded in 384 well plates, 1000 cells per well, in the same medium. The next day the test compounds were added in various concentrations ranging from 30 μM to 0.0015 μM (10 concentrations, 1:3 diluted). After 5 days the viability assay was done according to the instructions of the manufacturer. In brief: the cell-plate was equilibrated to room temperature for approximately 30 minutes and then reagent (containing luciferase, luciferan substrate, and buffer) was added. The contents were carefully mixed for 15 minutes to induce cell lysis. After 45 minutes the luminescent signal was measured in Victor 2, (scanning multiwell spectrophotometer, Wallac).
Medium: RPMI 1640 with cell culture media containing L-Alanyl-L-Glutamine [GlutaMAX™ I (Invitrogen, Cat-No. 61870)], 5% FCS (Sigma Cat.-No. F4135), Pen/Strep (Invitrogen, Cat No. 15140).
HCT116 (ATCC-No. CCl-247): 1000 cells in 60 μl per well of 384 well plate (Greiner 781098, μClear-plate white)
After seeding incubate plates 24 h at 37° C., 5% CO2
2nd. Day: Induction (Treatment with Compounds, 10 Concentrations):
In order to achieve a final concentration of 30 μM as highest concentration 3.5 μl of 10 mM compound stock solution were added directly to 163 μl media. Then step (d) of the dilution procedure described below, was followed.
In order to achieve the second highest to the lowest concentrations, a serial dilution with dilution steps of 1:3 was followed according to the procedure (a-d) as described here below:
(a) for the second highest concentration add 10 μl of 10 mM stock solution of compound to 20 μl dimethylsulfoxide (DMSO)
(b) dilute 8×1:3 (always 10 μl to 20 μl DMSO) in this DMSO dilution row (results in 9 wells with concentrations from 3333.3 μM to 0.51 μM)
(c) dilute each concentration 1: 47.6 (3.5 μl compound dilution to 163 μl media)
(d) add 10 μl of every concentration to 60 μl media in the cell plate […]

Aurora A kinase = biological target: T1, Aurora A kinase (Homo sapiens, UniProt O14965); assay: IC50 determination for inhibitors of Aurora A (ELISA-type kinase assay, GST-Histone H3 substrate); type: biochemical; details: mutant Aurora A kinase, 30 μM ATP, 40 minutes, read-out: IC50 Aurora A kinase inhibition
T1 sequence (O14965 1-403): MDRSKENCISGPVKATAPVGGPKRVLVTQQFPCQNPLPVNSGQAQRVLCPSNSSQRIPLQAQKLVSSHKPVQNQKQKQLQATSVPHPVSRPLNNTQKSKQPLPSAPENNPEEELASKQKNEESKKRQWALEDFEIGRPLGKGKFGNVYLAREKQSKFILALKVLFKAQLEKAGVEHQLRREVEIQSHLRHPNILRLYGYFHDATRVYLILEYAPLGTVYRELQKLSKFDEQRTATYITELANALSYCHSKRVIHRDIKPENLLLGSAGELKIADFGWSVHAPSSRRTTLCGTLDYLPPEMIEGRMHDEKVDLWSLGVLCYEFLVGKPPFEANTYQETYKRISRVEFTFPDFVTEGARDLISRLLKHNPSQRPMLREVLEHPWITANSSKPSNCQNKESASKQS
Protocol: IC50 Determination for Inhibitors of Aurora A
Aurora A is a serine threonine kinase involved in spindle assembly and chromosome segregation.
The assay is a typically ELISA-type assay where substrate (GST-Histone H3) is coupled to the assay-plate and is phosphorylated by the kinase. Phosphorylation is detected by a mouse anti-Phosphopeptid mAb and an HRP-labeled anti-mouse pAb. The assay is validated for IC50-determination.
Kinase activities were measured by Enzyme-Linked Immunosorbent Assay (ELISA): Maxisorp 384-well plates (Nunc) were coated with recombinant fusion protein comprising residues 1-15 of HistoneH3 fused to the N-terminus of Glutathione-S-Transferase. Plates were then blocked with a solution of 1 mg/mL I-block (a highly purified form of casein, Tropix cat. no. T2015) in phosphate-buffered saline. Kinase reactions were carried out in the wells of the ELISA plate by combining an appropriate amount of mutant Aurora A kinase with test compound and 30 μM ATP. The reaction buffer was 10× Kinase Buffer (Cell Signaling cat. no. 9802) supplemented with 1 μg/mL I-block. Reactions were stopped after 40 minutes by addition of 25 mM EDTA. After washing, substrate phosphorylation was detected by addition of anti-phospho-Histone H3 (Ser 10) 6G3 mAb (Cell Signaling cat. no. 9706) and sheep anti-mouse pAb-HRP (Amersham cat. no. NA931V), followed by colorimetric development with TMB (3,3′,5,5′-tetramethylbenzidine from Kirkegaard & Perry Laboratories). After readout of the adsorbance, IC50 values were calculated using a non-linear curve fit (XLfit software (ID Business Solution Ltd., Guilford, Surrey, UK)).

Structure (SMILES)	pIC50 (HCT 116 cells)	pIC50 (Aurora A kinase)
CC1(C)C(=O)Nc2cc3[nH]c(-c4n[nH]c5c4CCCC5)nc3cc21 [Example 7, 7,7-Dimethyl-2-(4,5,6,7-tetrahydro-1H-indazol-3-yl)-5,7-dihydro-3H-imidazo[4,5-f]indol-6-one]	5.70 to 7.00	
CC1(C)C(=O)N(CCCN2CCOCC2)c2cc3[nH]c(-c4n[nH]c5c4CCC5)nc3cc21 [Example 6, 7,7-Dimethyl-5-(3-morpholin-4-yl-propyl)-2-(1,4,5,6-tetrahydro-cyclopentapyrazol-3-yl)-5,7-dihydro-3H-imidazo[4,5-f]indol-6-one]	6.17	
CCN1C(=O)C(C)(C)c2cc3nc(-c4n[nH]c5c4CN(Cc4ccccc4)CC5)[nH]c3cc21 [Example 13, 2-(5-Benzyl-4,5,6,7-tetrahydro-1H-pyrazolo[4,3-c]pyridin-3-yl)-5-ethyl-7,7-dimethyl-5,7-dihydro-3H-imidazo[4,5-f]indol-6-one]	5.70 to 7.00	
CC1(C)C(=O)Nc2cc3[nH]c(-c4n[nH]c5c4CCC5)nc3cc21 [Example 1, 7,7-Dimethyl-2-(1,4,5,6-tetrahydro-cyclopentapyrazol-3-yl)-5,7-dihydro-3H-imidazo[4,5-f]indol-6-one]	5.70 to 7.00	
CC(C)N1C(=O)C(C)(C)c2cc3nc(-c4n[nH]c5c4CCC5)[nH]c3cc21 [Example 5, 5-Isopropyl-7,7-dimethyl-2-(1,4,5,6-tetrahydro-cyclopentapyrazol-3-yl)-5,7-dihydro-3H-imidazo[4,5-f]indol-6-one]		7.77
CCN1C(=O)C(C)(C)c2cc3nc(-c4n[nH]c5c4CCC5)[nH]c3cc21 [Example 3, 5-Ethyl-7,7-dimethyl-2-(1,4,5,6-tetrahydro-cyclopentapyrazol-3-yl)-5,7-dihydro-3H-imidazo[4,5-f]indol-6-one]	5.70 to 7.00	
CCN1C(=O)C(C)(C)c2cc3nc(-c4n[nH]c5c4CN(C(=O)Cc4ccc(F)cc4)CC5)[nH]c3cc21 [Example 15, 5-Ethyl-2-{5-[2-(4-fluoro-phenyl)-acetyl]-4,5,6,7-tetrahydro-1H-pyrazolo[4,3-c]pyridin-3-yl}-7,7-dimethyl-5,7-dihydro-3H-imidazo[4,5-f]indol-6-one]	5.82	
CCCN1C(=O)C(C)(C)c2cc3nc(-c4n[nH]c5c4CCC5)[nH]c3cc21 [Example 4, 7,7-Dimethyl-5-propyl-2-(1,4,5,6-tetrahydro-cyclopentapyrazol-3-yl)-5,7-dihydro-3H-imidazo[4,5-f]indol-6-one]	6.65	
CN1C(=O)C(C)(C)c2cc3nc(-c4n[nH]c5c4CCC5)[nH]c3cc21 [Example 2, 5,7,7-Trimethyl-2-(1,4,5,6-tetrahydro-cyclopentapyrazol-3-yl)-5,7-dihydro-3H-imidazo[4,5-f]indol-6-one]	6.37	
CCN1C(=O)C(C)(C)c2cc3nc(-c4n[nH]c5c4CCCC5)[nH]c3cc21 [Example 8, 5-Ethyl-7,7-dimethyl-2-(4,5,6,7-tetrahydro-1H-indazol-3-yl)-5,7-dihydro-3H-imidazo[4,5-f]indol-6-one]	5.70 to 7.00	

Now from value to molecule:

pIC50 (HCT 116 cells)	pIC50 (Aurora A kinase)	Structure (SMILES)
5.70 to 7.00		CCN1C(=O)C(C)(C)c2cc3nc(-c4n[nH]c5c4CSCC5)[nH]c3cc21 [Example 26, 5-Ethyl-7,7-dimethyl-2-(1,4,6,7-tetrahydro-thiopyrano[4,3-c]pyrazol-3-yl)-5,7-dihydro-3H-imidazo[4,5-f]indol-6-one]
5.70 to 7.00		CCc1cccc(CC)c1NC(=O)N1Cc2[nH]nc(-c3nc4cc5c(cc4[nH]3)N(C(C)C)C(=O)C5(C)C)c2C1 [Example 21, 3-(5-Isopropyl-7,7-dimethyl-6-oxo-3,5,6,7-tetrahydro-imidazo[4,5-f]indol-2-yl)-4,6-dihydro-1H-pyrrolo[3,4-c]pyrazole-5-carboxylic acid (2,6-diethyl-phenyl)-amide]
5.70 to 7.00		CCN1C(=O)C(C)(C)c2cc3nc(-c4n[nH]c5c4CN(C(=O)N4CCOCC4)CC5)[nH]c3cc21 [Example 18, 5-Ethyl-7,7-dimethyl-2-[5-(morpholine-4-carbonyl)-4,5,6,7-tetrahydro-1H-pyrazolo[4,3-c]pyridin-3-yl]-5,7-dihydro-3H-imidazo[4,5-f]indol-6-one]
5.70 to 7.00		CCN1C(=O)C(C)(C)c2cc3nc(-c4n[nH]c5c4CN(C(=O)Cc4cccs4)C5)[nH]c3cc21 [Example 23, 5-Ethyl-7,7-dimethyl-2-[5-(2-thiophen-2-yl-acetyl)-1,4,5,6-tetrahydro-pyrrolo[3,4-c]pyrazol-3-yl]-5,7-dihydro-3H-imidazo[4,5-f]indol-6-one]
6.13		CC(C)N1C(=O)C(C)(C)c2cc3nc(-c4n[nH]c5c4CN(C(=O)Cc4cccs4)C5)[nH]c3cc21 [Example 24, 5-Isopropyl-7,7-dimethyl-2-[5-(2-thiophen-2-yl-acetyl)-1,4,5,6-tetrahydro-pyrrolo[3,4-c]pyrazol-3-yl]-5,7-dihydro-3H-imidazo[4,5-f]indol-6-one]
6.47		CC(C)N1C(=O)C(C)(C)c2cc3nc(-c4n[nH]c5c4CSC5)[nH]c3cc21 [Example 28, 2-(4,6-Dihydro-1H-thieno[3,4-c]pyrazol-3-yl)-5-isopropyl-7,7-dimethyl-5,7-dihydro-3H-imidazo[4,5-f]indol-6-one]
5.70 to 7.00		CCN1C(=O)C(C)(C)c2cc3nc(-c4n[nH]c5c4CN(S(=O)(=O)c4ccc(F)cc4)C5)[nH]c3cc21 [Example 25, 5-Ethyl-2-[5-(4-fluoro-benzenesulfonyl)-1,4,5,6-tetrahydro-pyrrolo[3,4-c]pyrazol-3-yl]-7,7-dimethyl-5,7-dihydro-3H-imidazo[4,5-f]indol-6-one]
